Assay results published in article PMC7096397, “Improving the drug-likeness of inspiring natural products - evaluation of the antiparasitic activity against Trypanosoma cruzi through semi-synthetic and simplified analogues of licarin A” (Scientific Reports, 2020).
“Also recorded” adds a separate entry of the source.

Tests used:
[1] = tested on: T. cruzi intracellular amastigotes; experiment: Anti-amastigote assay in infected peritoneal macrophages (infection index); format: cell-based, Trypanosoma cruzi; conditions: Trypanosoma cruzi, Peritoneal macrophage, in Mus musculus, 48 h, read-out: IC50 Ama
Description: (§1) The cells and parasites were kept at 37 °C in a humidified atmosphere containing 5% CO2.
The cells were plated on a 16-well chamber slide – NUNC (Thermo Fisher Scientific) at 1 × 10^5 cells/well and incubated for 24 h at 37 °C in a 5% CO2 humidified incubator. […] Tested compounds were subsequently incubated with infected macrophages for 48 h at 37 °C (5% CO2 humidified incubator) in different nontoxic concentrations. Benznidazole was used as standard drug. At the end of the assay, slides were fixed with MeOH and stained with Giemsa, counted under a light microscope (EVOS M5000, Thermo, USA) and IC50 values were determined by the infection index.
(§2) IC50 and CC50 values were calculated using a sigmoid dose-response curves in Graph–Pad Prism 5.0 software (GraphPad Software - San Diego, CA, USA). For the mechanism of action studies one-way ANOVA (Turkey’s Multiple Comparison test) was used for significance (p < 0.05). The assays were repeated at least twice and the samples were tested in duplicate.

[2] = tested on: T. cruzi (Y strain) trypomastigotes; experiment: Anti-trypomastigote assay (resazurin viability); format: cell-based, Trypanosoma cruzi; conditions: Trypanosoma cruzi, 24 h, read-out: IC50 trypo
Description: as §1
Benznidazole was used as the standard drug. The optical density was determined in FilterMax F5 (Molecular Devices) at 570 nm[38].
as §2

[3] = PAMPA intestinal model (GIT); format: in vitro ADME; conditions: read-out: plasma protein binding percentage
PAMPA-BBB model = format: in vitro ADME; conditions: PAMPA-BBB model, 300 µM donor, PBS pH 7.4; read-out: Papp BBB
Description: The methodology herein applied was similar to that described in the previous section, however with the purpose of assessing the permeability of the compounds through the blood brain barrier (BBB). Thus, stock solutions (10 mM) of each test compound were prepared in DMSO and diluted with phosphate buffered saline (PBS) at pH 7.4. The final concentration of donor solutions was 300 μM and DMSO of 5%. Artificial membrane lipid solutions were prepared daily by dissolving, in n-dodecane, the porcine brain lipid extracted as described[40] at the final concentration of 2% (m/v). PAMPA procedure was similar to that described in the previous section although, in PAMPA-BBB, the donor and acceptor solutions were prepared using phosphate buffer saline (PBS) at pH 7.4 and the Papp was obtained through the equation previously reported.

[4] = PAMPA intestinal model (GIT); format: in vitro ADME; conditions: PAMPA intestinal model, 300 µM donor, Tris buffer, 25 °C, 16 h; read-out: Papp GIT
Description: Intestinal permeability of tested compounds was estimated applying the PAMPA model previously developed and validated. Briefly, stock solutions were prepared in dimethyl sulfoxide (DMSO) at the concentrations of 10 mM and then diluted with Tris buffer to give the final concentration donor solution at 300 µM and 5% DMSO. The assay procedure was initiated by filling each well of the microtiter plate (MultiScreen, catalogue no. MATRNPS50, Millipore Corporation, Bedford, MA, USA) with 300 μL of each donor drug solution. Carefully, and avoiding the pipette tip contact with the filter, the hydrophobic filter (0.45 μm) of each acceptor well of the 96-well microfilter plate (MultiScreen-IP, catalogue no. MAIPNTR10, Millipore Corporation, Bedford, MA, USA) was adsorbed with 6 μL of the artificial lipid solution which was composed of 2% of L-α-phosphatidylcholine from soybean dissolved, by sonication, in n-dodecane. Immediately after this application, 150 μL of Tris buffer containing 5% DMSO was added to the receiving well. The receiving well was mounted on the donor plate, keeping the underside of the membrane in contact with the donor solution. The assembled donor–acceptor plates were incubated under constant stirring (3 g) at 25 °C for approximately 16 h. Subsequently, the quantity of each compound presented at the receptor solution (150 μL) was determined by UV/VIS spectrophotometrically.

[5] = Cytotoxicity against mammalian cells (MTT); format: cell-based, Murine; conditions: mouse, NCTC clone L929 cells
Description: Rhesus monkey kidney cells (LLC-MK2-ATCC CCL 7) were used for the maintenance of trypomastigotes of T. cruzi (Y strain) using RPMI-1640 medium supplemented with 2% fetal bovine serum (FBS). The cells and parasites were kept at 37 °C in a humidified atmosphere containing 5% CO2. Peritoneal macrophages, used in the experiments of anti-amastigote assay, were obtained by washing the peritoneal cavity of BALB/c mice, with RPMI-1640 medium supplemented with 10% FBS and kept at 37 °C in a 5% CO2 humidified incubator. Murine conjunctive cells (NCTC clone 929, ATCC) and LLC-MK2 were kept in RPMI-1640 supplemented with 10% FBS at the same conditions described above.
NCTC cells-clone L929 (6 × 10^4 cells/well) were seeded and incubated with tested compounds (200–1.56 µM) for 48 h at 37 °C in a 5% CO2 humidified incubator. Cytotoxic concentration (CC50) was determined by MTT assay. Optical density was determined in FilterMax F5 (Molecular Devices) at 570 nm. Selectivity Index (SI) was determined using the following ratio: CC50 against NCTC cells/IC50 against parasites.
as §2

T. cruzi trypomastigotes [6] = experiment: Reactive oxygen species (ROS) generation, H2DCFDA probe; format: cell-based, Trypanosoma cruzi
Description: After, H2DCFDA probe (Molecular Probes) was added (5 µM) and incubated by 15 min[44]. The fluorescence intensity was measure using a fluorimetric microplate reader (FilterMax F5 Multi-Mode, Molecular Devices) with excitation and emission wavelengths of 485 and 520 nm, respectively. Azide (10 mM) was used as positive control and untreated parasites were used as negative control.

T. cruzi trypomastigotes [7] = experiment: ATP generation (luciferin/luciferase); format: cell-based, Trypanosoma cruzi; conditions: at IC50, 2 h of incubation
Description: Untreated parasites and treated with the mitochondrial uncoupler CCCP (carbonyl cyanide m-chlorophenylhydrazone - Sigma) at 100 µM, were used as positive and negative controls, respectively. […] Luminescence intensity was measured using a luminometer (FilterMax F5 Multi-Mode, Molecular Devices) and the amount of ATP was calculated from an ATP standard curve.

T. cruzi trypomastigotes [8] = experiment: Plasma membrane permeability, Sytox Green probe; format: cell-based, Trypanosoma cruzi; conditions: at IC50, up to 120 min, vs untreated parasites
Description: The action of compounds 1d, 1e, 3d and 4a in the cell membrane permeability were evaluated in T. cruzi trypomastigotes (2 × 10^6/well) seeded in 96-well black polystyrene microplates. Parasites were washed and incubated in the dark with 1 μM SYTOX Green probe (Molecular Probes) in HANKS’ balanced salts solution (HBSS; Sigma-Aldrich) supplemented with 10 mM D-Glucose (HBSS + Glu) in 96-well black polystyrene microplates[43],[44]. […] The maximum permeabilization was obtained with the addiction of 0.5% Triton X-100. Fluorescence intensities were determined using a fluorimetric microplate reader (FilterMax F5 Multi-Mode Microplate Reader-Molecular Devices) with excitation and emission wavelengths of 485 and 520 nm, respectively. The following internal controls were used in the evaluation: i) the background fluorescence of the compound at the respective wavelengths, ii) the possible interference of DMSO.

Structure (SMILES)	IC50 [1] [µM]	IC50 [2] [µM]	fraction unbound at 16 h, 300 µM [3]	Papp at 16 h, 300 µM (PAMPA-BBB model) [×10⁻⁶ cm/s]	Papp at 16 h, 300 µM [4] [×10⁻⁶ cm/s]	CC50 at 48 h [5] [µM]	ROS generation (T. cruzi trypomastigotes [6]; at IC50, 1 h of treatment)	ROS levels (T. cruzi trypomastigotes [6]; at IC50, 2 h of treatment)	ATP levels (T. cruzi trypomastigotes [7])	Sytox Green fluorescence levels (plasma membrane permeability) (T. cruzi trypomastigotes [8])
COc1ccc(C=O)cc1OC [2a, 3,4-dimethoxybenzaldehyde]	> 100	> 100	< 0.1	7	20.7	> 200	–	–	–	–
C/C=C/c1ccc(OC)c(OC)c1 [4a, 1,2-dimethoxy-4-[(E)-prop-1-enyl]benzene]	> 100	8.8 ± 2	< 0.1	1.29	15.9	> 200	increased the reactive oxygen species (ROS) levels; also recorded: increased ROS generation	drop of the levels	increased ATP production	no changes in the fluorescence levels
C=CCc1ccc(O)c(OC)c1 [compound 5, eugenol]	> 100	> 100	< 0.1	3.98	14.4	> 200	–	–	–	–
